pIC50: −log10 of the molar value. “Also recorded” adds a separate entry of the source.
Assays:
[1] = In vivo non-clinical PK, mouse
Method: (§1) The in vivo non-clinical PK profile of I-57 was investigated in mouse, rat, dog and cynomolgus monkey using I-57 free base. […] After p.o. administration, the absorption of I-57 was rapid with peak blood concentration (Tmax) occurring between 1 and 4 hours. […] In high dose PK and toxicology studies with I-57 the exposures in mouse, rat and monkey increased with dose.
(§2) The binding to plasma protein of I-57 in vitro was moderate in all species, with an observed difference between rodents (73% in mouse, 76% in rat) and non-rodents (52% in dog and monkey, 54% in human). Blood-to-plasma ratios were in the range of 0.7-1.8 (human 1.1-1.3). […] Based on results with non-radiolabeled I-57 in the dog, a significant amount of unchanged I-57 was renally eliminated (˜20% of dose).

IKZF2 [2] = biological target: IKZF2 (Homo sapiens, UniProt Q96SW2+Q9UKS7); assay: Degradation of IKZF2 in primary PBMCs, human (FIG. 3); type: cell-based; design: endogenous in cells; host or cells: primary human PBMCs
Chain of IKZF2 (Homo sapiens, UniProt Q96SW2+Q9UKS7) (Q9UKS7 whole entry): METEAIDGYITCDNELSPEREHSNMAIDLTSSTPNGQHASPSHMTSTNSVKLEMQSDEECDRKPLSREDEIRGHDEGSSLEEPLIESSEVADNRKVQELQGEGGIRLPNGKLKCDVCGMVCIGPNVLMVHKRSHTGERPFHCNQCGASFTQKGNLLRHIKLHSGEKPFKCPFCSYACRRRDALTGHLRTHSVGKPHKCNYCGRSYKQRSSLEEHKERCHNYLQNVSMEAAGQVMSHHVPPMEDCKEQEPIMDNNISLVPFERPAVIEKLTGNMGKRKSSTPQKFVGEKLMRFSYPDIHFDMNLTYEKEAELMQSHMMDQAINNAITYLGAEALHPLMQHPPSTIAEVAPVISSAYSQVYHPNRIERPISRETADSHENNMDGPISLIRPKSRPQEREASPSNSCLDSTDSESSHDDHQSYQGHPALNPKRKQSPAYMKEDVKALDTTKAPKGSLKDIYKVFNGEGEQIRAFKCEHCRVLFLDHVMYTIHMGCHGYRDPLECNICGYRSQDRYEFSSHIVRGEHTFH
Chain of IKZF2 (Homo sapiens, UniProt Q96SW2+Q9UKS7) (Q96SW2 whole entry): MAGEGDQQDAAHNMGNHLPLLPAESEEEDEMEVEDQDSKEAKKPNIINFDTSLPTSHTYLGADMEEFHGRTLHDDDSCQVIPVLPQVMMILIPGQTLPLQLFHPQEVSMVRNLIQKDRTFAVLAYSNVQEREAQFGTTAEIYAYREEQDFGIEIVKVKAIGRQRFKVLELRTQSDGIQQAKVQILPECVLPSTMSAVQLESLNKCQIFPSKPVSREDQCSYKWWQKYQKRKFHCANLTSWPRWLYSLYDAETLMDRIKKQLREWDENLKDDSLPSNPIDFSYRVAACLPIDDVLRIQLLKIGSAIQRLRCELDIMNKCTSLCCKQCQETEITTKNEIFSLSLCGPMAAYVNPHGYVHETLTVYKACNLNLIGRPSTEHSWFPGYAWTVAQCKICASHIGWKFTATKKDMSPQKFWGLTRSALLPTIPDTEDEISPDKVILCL
Chain of IKZF2 (Homo sapiens, UniProt Q96SW2+Q9UKS7) (Q16531 whole entry partner): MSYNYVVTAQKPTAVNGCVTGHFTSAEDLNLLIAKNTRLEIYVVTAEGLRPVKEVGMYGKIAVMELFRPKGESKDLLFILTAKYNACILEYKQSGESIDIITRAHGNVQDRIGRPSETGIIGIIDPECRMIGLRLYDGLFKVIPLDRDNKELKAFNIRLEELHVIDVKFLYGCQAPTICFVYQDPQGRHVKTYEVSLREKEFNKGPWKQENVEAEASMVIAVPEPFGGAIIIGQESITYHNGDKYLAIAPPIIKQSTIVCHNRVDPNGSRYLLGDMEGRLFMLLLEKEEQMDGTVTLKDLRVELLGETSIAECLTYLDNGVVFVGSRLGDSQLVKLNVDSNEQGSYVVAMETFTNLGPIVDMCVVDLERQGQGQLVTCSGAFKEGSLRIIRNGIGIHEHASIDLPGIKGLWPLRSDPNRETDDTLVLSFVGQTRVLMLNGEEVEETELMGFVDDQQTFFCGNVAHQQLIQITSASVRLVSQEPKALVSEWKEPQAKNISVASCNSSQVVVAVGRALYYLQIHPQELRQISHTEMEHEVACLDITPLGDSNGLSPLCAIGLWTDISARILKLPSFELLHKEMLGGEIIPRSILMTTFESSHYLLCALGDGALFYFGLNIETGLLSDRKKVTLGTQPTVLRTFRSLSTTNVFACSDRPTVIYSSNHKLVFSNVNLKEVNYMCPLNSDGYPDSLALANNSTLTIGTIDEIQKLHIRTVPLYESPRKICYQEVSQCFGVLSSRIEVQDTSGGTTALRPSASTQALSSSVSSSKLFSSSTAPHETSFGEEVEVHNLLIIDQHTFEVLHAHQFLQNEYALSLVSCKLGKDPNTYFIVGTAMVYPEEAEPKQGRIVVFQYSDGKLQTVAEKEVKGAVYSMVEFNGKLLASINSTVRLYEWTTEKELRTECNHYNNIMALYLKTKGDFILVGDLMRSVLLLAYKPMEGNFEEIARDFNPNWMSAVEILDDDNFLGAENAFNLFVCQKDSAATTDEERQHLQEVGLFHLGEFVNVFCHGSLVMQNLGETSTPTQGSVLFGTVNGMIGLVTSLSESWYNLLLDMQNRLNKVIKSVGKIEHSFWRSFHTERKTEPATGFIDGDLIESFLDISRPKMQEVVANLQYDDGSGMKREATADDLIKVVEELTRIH
Text: (§3) FIG. 3. is a bar graph showing the degradation of IKZF2 in primary PBMCs obtained from rabbit, dog, pig, cynomolgus monkey and human, and in primary splenocytes of mouse and rat and treated with Compound I-57.

[3] = test system: IFNγ production in Teff cells; assay: IFNγ production in Teff cells (FIG. 2D); type: cell-based; conditions: 2.5 nM, 25 nM and 2.5 μM vs DMSO
CYP3A4 = CYP3A4 (Homo sapiens, UniProt P08684); assay: Enzyme phenotyping with human recombinant CYPs; type: in vitro ADME; conditions: human recombinant CYPs in vitro; preliminary assessment
Method: In vivo in the dog, very minor amounts of the N-dealkylation product and products derived from hydrolysis of the glutarimide moiety were detected in plasma. While the contribution of CYP-mediated oxidative metabolism to systemic clearance is unknown, a preliminary assessment of the enzymes involved was conducted using human recombinant CYPs in vitro.

plasma protein [4] = assay: Plasma protein binding in vitro, mouse; type: in vitro ADME
Text: as §2

IKZF2 [5] = assay: IKZF2 degradation in primary cynomolgus monkey PBMCs; type: cell-based; conditions: primary monkey PBMCs in vitro
Text: (§4) Although the specific transcriptional targets of IKZF2 remain to be defined, IKZF2 binds to and represses transcription from the IL-2 promoter region (Baine 2013). […] Finally, an in vitro assay recapitulating hallmarks of T cell dysfunction/exhaustion, by sequential TCR stimulation of isolated primary human T cells, was used to test the hypothesis that […] would rescue the exhausted phenotype and enhance Teff cell activity. […] In addition to IKZF1, other known cereblon substrates including translation termination factor G1 to S phase transition 1 (GSPT1) are not degraded by I-57 (FIG. 1).
(§5) I-57 mediated degradation of IKZF2 was assessed in primary PBMCs obtained from rabbit, dog, pig, cynomolgus monkey, and human, and in primary splenocytes of mouse and rat. […] Species-specificity due to species specific alteration CRBN primary structure have previously been described with other compounds known to interact with the CRBN ubiquitin ligase complex to elicit protein specific degradation (Krönke et al, 2015).

[6] = Toxicology studies: CNS and respiratory signs; type: in vivo
Text: The non-clinical safety profile of I-57 was established in vitro, and in vivo in rats and cynomolgus monkeys in studies up to 4-weeks duration. Based on the outcome of these studies, QTc interval prolongation was identified as the principal safety signal for I-57. There were other toxicities such as diarrhea and vomiting in monkeys, and mortality, clinical signs and target organ toxicities in rats; however, these occurred at exposures far above those expected to result in clinical activity.

Treg cells = assay: Suppressive potency of Treg cells expanded in the presence of compound (FIG. 2C); type: cell-based
Text: FIG. 2C is a bar graph showing the suppressive potency of Treg cells expanded in the presence of Compound I-57.

IKZF2 [7] = assay: IKZF2 degradation in primary rabbit PBMCs; type: cell-based
Method: as §5

CYP2A6 = CYP2A6 (Homo sapiens, UniProt P11509); assay: CYP inhibition: CYP2A6; type: in vitro ADME; conditions: I-57 concentrations of up to 100 μM
Chain of CYP2A6 (P11509 whole entry): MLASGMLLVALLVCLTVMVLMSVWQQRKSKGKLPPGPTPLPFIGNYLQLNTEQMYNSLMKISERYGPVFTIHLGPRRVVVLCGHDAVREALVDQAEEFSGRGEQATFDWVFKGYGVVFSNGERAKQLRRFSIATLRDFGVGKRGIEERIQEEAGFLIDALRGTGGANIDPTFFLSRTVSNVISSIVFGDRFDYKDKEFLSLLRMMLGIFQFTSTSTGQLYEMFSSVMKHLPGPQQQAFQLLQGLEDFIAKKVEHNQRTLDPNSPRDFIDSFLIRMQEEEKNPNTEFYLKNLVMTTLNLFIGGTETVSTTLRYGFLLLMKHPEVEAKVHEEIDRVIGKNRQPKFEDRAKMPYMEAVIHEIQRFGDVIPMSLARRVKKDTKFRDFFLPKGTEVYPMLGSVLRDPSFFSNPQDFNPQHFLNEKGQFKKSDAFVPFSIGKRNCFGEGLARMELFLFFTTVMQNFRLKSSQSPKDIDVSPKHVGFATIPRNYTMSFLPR

PXR = PXR (Homo sapiens, UniProt O75469); assay: PXR reporter gene assay (CYP3A induction potential); type: cell-based
Chain of PXR (O75469 whole entry): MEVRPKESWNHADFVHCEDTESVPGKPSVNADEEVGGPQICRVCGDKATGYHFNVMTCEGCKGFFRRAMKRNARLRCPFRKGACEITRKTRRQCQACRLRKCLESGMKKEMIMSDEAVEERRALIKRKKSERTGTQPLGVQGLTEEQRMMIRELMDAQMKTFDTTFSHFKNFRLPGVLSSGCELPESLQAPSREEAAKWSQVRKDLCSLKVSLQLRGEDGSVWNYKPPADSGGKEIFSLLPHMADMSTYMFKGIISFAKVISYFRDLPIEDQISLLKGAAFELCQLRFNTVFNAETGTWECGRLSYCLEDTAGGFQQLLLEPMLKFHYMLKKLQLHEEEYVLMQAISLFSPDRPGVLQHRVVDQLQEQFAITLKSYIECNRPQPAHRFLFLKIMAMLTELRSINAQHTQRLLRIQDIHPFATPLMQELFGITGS
Text: Based on a PXR reporter gene assay, I-57's induction potential for CYP3A appears to be low.

[8] = In vivo non-clinical PK profile, all species tested; design: species or system mouse, rat, dog and cynomolgus monkey
Method: as §1

GSPT1 = biological target: T1, GSPT1 (Homo sapiens, UniProt P15170); assay: GSPT1 degradation in vitro (FIG. 1); type: cell-based
T1 construct: prolabel (ProLabel enzyme-fragment tag); expressed in transfected cells; host or cells: HEK293T
T1 sequence (Q96SW2 whole entry partner, the tested form may be a part): as the sequence (Q96SW2 whole entry) above
T1 sequence (Q16531 whole entry partner, the tested form may be a part): as the sequence (Q16531 whole entry partner) above
T1 sequence (P15170 whole entry, the tested form may be a part): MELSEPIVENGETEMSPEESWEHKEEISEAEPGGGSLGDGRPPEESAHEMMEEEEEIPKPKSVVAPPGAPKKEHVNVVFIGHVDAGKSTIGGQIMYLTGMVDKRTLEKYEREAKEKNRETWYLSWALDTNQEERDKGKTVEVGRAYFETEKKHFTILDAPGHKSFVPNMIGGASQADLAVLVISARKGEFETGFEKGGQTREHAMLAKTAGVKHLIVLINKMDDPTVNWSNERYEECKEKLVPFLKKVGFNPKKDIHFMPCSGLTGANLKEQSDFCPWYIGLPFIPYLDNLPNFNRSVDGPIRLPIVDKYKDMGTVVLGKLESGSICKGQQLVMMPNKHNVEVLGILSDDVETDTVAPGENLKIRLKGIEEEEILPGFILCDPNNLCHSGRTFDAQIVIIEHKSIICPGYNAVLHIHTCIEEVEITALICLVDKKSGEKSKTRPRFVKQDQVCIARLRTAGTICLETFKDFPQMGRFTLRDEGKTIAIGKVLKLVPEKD
Text: as §4

IKZF2 [9] = assay: Degradation of IKZF2 in primary PBMCs, cynomolgus monkey (FIG. 3); type: cell-based
Text: as §3

hERG = hERG (Homo sapiens, UniProt Q12809); assay: In vitro hERG inhibition; type: biochemical
Method: The risk of possible QTc interval prolongation at the starting dose is therefore considered low. QT prolongation may become clinically significant during escalation but are not anticipated to be dose limiting until doses at or above 640 mg. Monitoring and other measures to mitigate potential risk of arrhythmia is addressed in Example 3 below.

CYP2C8 = CYP2C8 (Homo sapiens, UniProt P10632); assay: CYP inhibition: CYP2C8; type: in vitro ADME; conditions: I-57 concentrations of up to 100 μM
IKZF2 [10] = biological target: T2, IKZF2 (Oryctolagus cuniculus, UniProt A0A5F9CPW0); assay: Degradation of IKZF2 in primary PBMCs, rabbit (FIG. 3); type: cell-based
T2 construct: endogenous in cells; host or cells: primary rabbit PBMCs
T2 sequence (A0A5F9CPW0 1-526): as the sequence (Q9UKS7 whole entry) above, with E68D, M234V, I266M, A373S, H423N, A449V counted along it
Text: as §3

CYP1A2 = CYP1A2 (Homo sapiens, UniProt P05177); assay: Time-dependent CYP inhibition: CYP1A2; type: in vitro ADME; conditions: I-57 concentrations of up to 100 μM
Chain of CYP1A2 (P05177 whole entry): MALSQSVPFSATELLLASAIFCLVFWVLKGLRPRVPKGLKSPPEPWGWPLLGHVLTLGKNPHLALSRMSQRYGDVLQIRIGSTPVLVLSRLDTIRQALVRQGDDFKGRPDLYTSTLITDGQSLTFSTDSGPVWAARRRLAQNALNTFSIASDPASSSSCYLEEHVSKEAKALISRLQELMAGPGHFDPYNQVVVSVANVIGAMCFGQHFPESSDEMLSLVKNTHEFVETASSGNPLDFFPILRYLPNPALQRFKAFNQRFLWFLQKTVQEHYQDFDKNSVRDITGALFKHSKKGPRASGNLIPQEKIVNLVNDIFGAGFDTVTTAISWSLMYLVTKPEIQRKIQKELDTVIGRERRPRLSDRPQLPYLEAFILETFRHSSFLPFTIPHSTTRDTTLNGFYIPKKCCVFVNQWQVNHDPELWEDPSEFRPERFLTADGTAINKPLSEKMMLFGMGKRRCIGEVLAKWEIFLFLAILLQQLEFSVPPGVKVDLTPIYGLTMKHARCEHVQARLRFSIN

plasma protein [11] = assay: Plasma protein binding in vitro, rat; type: in vitro ADME
Text: as §2

CYP2E1 = CYP2E1 (Homo sapiens, UniProt P05181); assay: CYP inhibition: CYP2E1; type: in vitro ADME; conditions: I-57 concentrations of up to 100 μM
Chain of CYP2E1 (P05181 whole entry): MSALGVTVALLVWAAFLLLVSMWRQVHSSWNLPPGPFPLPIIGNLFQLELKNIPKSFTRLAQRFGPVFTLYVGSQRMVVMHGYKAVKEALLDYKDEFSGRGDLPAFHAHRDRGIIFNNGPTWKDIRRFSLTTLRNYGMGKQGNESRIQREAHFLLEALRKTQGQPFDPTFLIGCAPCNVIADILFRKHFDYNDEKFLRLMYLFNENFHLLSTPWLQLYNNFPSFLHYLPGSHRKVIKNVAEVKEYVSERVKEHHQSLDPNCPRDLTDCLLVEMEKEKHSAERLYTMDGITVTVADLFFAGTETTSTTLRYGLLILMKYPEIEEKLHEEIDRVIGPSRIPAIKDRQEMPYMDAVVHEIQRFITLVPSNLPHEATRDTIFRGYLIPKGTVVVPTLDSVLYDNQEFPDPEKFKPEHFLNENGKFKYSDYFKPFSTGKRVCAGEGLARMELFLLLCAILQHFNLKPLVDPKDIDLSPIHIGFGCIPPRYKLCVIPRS

[12] = i.v. administration, all species tested, I-57 free base

For O=C1CCC(N2Cc3cc(C4CCN(Cc5ccccc5)CC4)ccc3C2=O)C(=O)N1 (stereo not shown) [Compound I-57, 3-(5-(1-benzylpiperidin-4-yl)-1-oxoisoindolin-2-yl)piperidine-2,6-dione], the “dose proportionality of AUC” value ([1]; between 3 mg/kg and 100 mg/kg) was “roughly dose proportional”, the bioavailability ([1]; blood, po) was 53% and the Kp ([1]; brain, read-out: brain/plasma ratio) was 0.07. For the same compound, the “degradation of IKZF2” value (IKZF2 [2]) was “degradation was observed”, the “IFNγ production by IKZF2+ cells” value [3] was “concomitant increase in IFNγ production” and the “CYP enzyme mediating oxidative metabolism” value (CYP3A4) was “CYP3A4 was found to primarily mediate these reactions”. For the same compound, the “binding to plasma protein” value (plasma protein [4]) was 73%, the “degradation of IKZF2” value (IKZF2 [5]) was “potent degradation; also recorded: Degradation was observed” and the “CNS or respiratory signs” value [6] was “no CNS or respiratory signs”. The “capacity of Treg cells to suppress Teff proliferation” value (Treg cells) was “reduced capacity to suppress Teff proliferation”, the “degradation of IKZF2” value (IKZF2 [7]) was “Degradation was observed” and the “inhibition of CYP2A6” value (CYP2A6) was “very little and no inhibition”. For the same compound, the “induction potential for CYP3A” value (PXR) was “low”, the “blood clearance (CL)” value [8, 12] was “low to moderate” and the “terminal half-life (T½)” value [8, 12] was “moderate”. The “volume of distribution (Vss)” value [8, 12] was “moderate to high”, the Tmax ([8]; mouse, rat, dog, cynomolgus monkey, blood, po, p.o. administration, read-out: peak blood concentration (Tmax)) was 1 to 4 h and the “degradation of GSPT1” value (GSPT1) was “not degraded”. For the same compound, the “degradation of IKZF2” value (IKZF2 [9]) was “degradation was observed”, the pIC50 (hERG) was 5.15 and the “inhibition of CYP2C8” value (CYP2C8) was “very little and no inhibition”. The “degradation of IKZF2” value (IKZF2 [10]) was “degradation was observed”, the “time-dependent inhibition of CYP1A2” value (CYP1A2) was “no apparent time-dependent inhibition” and the “binding to plasma protein” value (plasma protein [11]) was 76%. The “inhibition of CYP2E1” value (CYP2E1) was “very little and no inhibition”.
